Measurements from patent publication US11904051B2, “Shear stress sensitive liposomes” (Universität Basel, priority 2018, dated 2024).
Values joined by “and” are separate entries in the source; they are usually repeats but may differ in a detail not shown here. Equal entries are not always repeated.

Experiment: SAXS measurement of liposomes under static conditions (glass capillary)
Format: physicochemical
Conditions: static condition
Text: The investigated q-range between 0:02 nm^−1 and 1:65 nm^−1 corresponds to real-space distances d between 314 and 3 nm and, therefore, covers almost the entire nanometer range relevant for the characterization of the liposomes. The diagrams in FIG. 11 show the radially integrated scattering signal of DPPC-DSPE/PEG (top panel) and Pad-PC-Pad (bottom panel) liposomes acquired in suitable glass capillaries.
Suitable models are often utilized in the interpretation of the scattering signal of the system investigated. Herein, the scattering curves of DPPC/DSPE-PEG and Pad-PC-Pad were both fitted using a decoupling approach, which allowed to factorize the total form factor as product of a cross section term for long dimension and a cross section term for shorter dimension (Porod et al., IV. Acta Physica Austriaca 1948, 2, 255-292). To fit the form factor related to the overall shape of DPPC/DSPE-PEG, a thin spherical shell model was used (Breÿler et al., Journal of Applied Crystallography 2015, 48, 1587-1598), whereas the intensity peak related to the bilayer was fitted using a function for a bilayer with a Gaussian electron density profile (Pabst et al., Journal of Applied Crystallography 2003, 36, 1378-1388; Pabst et al., Physical Review E 2000, 62, 4000). The model utilized to fit the bilayer provided the bilayer thickness as the distance head-to-head dhh between the two phospholipid heads and the standard deviation over the phoshpolipid heads.
To fit the form factor related to the overall shape of Pad-PC-Pad a thin ellipsoidal shell model was used (Olson et al., Biochimica et Biophysica Acta (BBA)—Biomembranes 1979, 557, 9-23). An eccentricity E of 0.43 was found. As for DPPC/DSPE-PEG, the intensity peak related to the phospholipid head-to-head distance dhh was fitted using a function for a bilayer with a Gaussian electron density profile (Pabst et al., Journal of Applied Crystallography 2003, 36, 1378-1388; Pabst et al., Physical Review E 2000, 62, 4000) and a normal distribution over dhh. […]

SMILES: CCCCCCCCCCCCCCCC(=O)NCC(CNC(=O)CCCCCCCCCCCCCCC)OP(=O)([O-])OCC[N+](C)(C)C [Pad-PC-Pad, 1,3-palmitoylamido-1,3-deoxy-sn-glycero-2-phosphatidylcholine]
- head-to-head distance dhh (bilayer Gauss electron density profile model): 3.3±0.8 nm and 3.3 nm
- Radius of gyration Rg (glass capillary, flow rate 0): 60.3 nm and 60.3 ± 0.4 nm
- eccentricity ε (thin ellipsoidal shell model): 0.43
